From PMC8134453
Entries after “also recorded” stand apart in the source; their conditions may differ. Read-outs that look alike come from different tables or passages of the source.

Tests used:
Jack bean (JB) urease [1] = biological target: T1, Jack bean (JB) urease (Canavalia ensiformis, UniProt P07374); assay: Urease inhibition, modified Berthelot spectrophotometric method; format: biochemical
T1 construct: purchased Sigma-Aldrich (USA)
Experimental: All used material and JB urease (EC 3.5.1.5) were purchased from Sigma–Aldrich (USA). Potassium phosphate buffer (PPB) solution with concentration 100 mM and pH = 7.4 was prepared in distilled water. […] The enzymatic reactions were performed in PPB solution which reach to the 985 μL by adding urea (850 μL) and the synthesized compound (100 μL, 0–10 mg/mL). Then, urease (15 μL) was added and the concentration of liberated ammonia was measured after 60 min. The corresponding concentration of ammonia was determined by addition of the incubated solution (100 μL) to the mixture of 500 μL of solution I (5.0 g phenol and 25.0 mg sodium nitroprusside in 500 mL water) and 500 μL of solution II (2.5 g sodium hydroxide and 4.2 mL sodium hypochlorite (5% chlorine) in 500 mL water) which was incubated at 37 °C for 30 min. The absorbance was obtained by measuring indophenols. The activity of uninhibited JB urease was considered as the control activity of 100%. The inhibition assays were conducted according to this formula: I (%) = [1 − (T/C)] × 100; where I (%) is the enzyme inhibition, T (test) is the absorbance of the analyzed compounds in the presence of urease solution, and C (control) is the absorbance of the solvent in the presence of urease solution. Data were expressed as mean ± […] and run in triplicate. […] Thiourea and hydroxyurea were used as the standard inhibitors for urease.

Jack bean (JB) urease [2] = biological target: T1, Jack bean (JB) urease; assay: Urease kinetic study (Lineweaver–Burk plots); format: biochemical
Experimental: The inhibition mode and Ki value were determined by Lineweaver–Burk plots and secondary re-plotting of the mentioned plots, respectively.
All used material and JB urease (EC 3.5.1.5) were purchased from Sigma–Aldrich (USA). Potassium phosphate buffer (PPB) solution with concentration 100 mM and pH = 7.4 was prepared in distilled water. […] The enzymatic reactions were performed in PPB solution which reach to the 985 μL by adding urea (850 μL) and the synthesized compound (100 μL, 0–10 mg/mL). Then, urease (15 μL) was added and the concentration of liberated ammonia was measured after 60 min. The corresponding concentration of ammonia was determined by addition of the incubated solution (100 μL) to the mixture of 500 μL of solution I (5.0 g phenol and 25.0 mg sodium nitroprusside in 500 mL water) and 500 μL of solution II (2.5 g sodium hydroxide and 4.2 mL sodium hypochlorite (5% chlorine) in 500 mL water) which was incubated at 37 °C for 30 min. The absorbance was obtained by measuring indophenols. The activity of uninhibited JB urease was considered as the control activity of 100%. The inhibition assays were conducted according to this formula: I (%) = [1 − (T/C)] × 100; where I (%) is the enzyme inhibition, T (test) is the absorbance of the analyzed compounds in the presence of urease solution, and C (control) is the absorbance of the solvent in the presence of urease solution. Data were expressed as mean ± standard error (SD) and run in triplicate. […] Thiourea and hydroxyurea were used as the standard inhibitors for urease.

[3] = no reference given; cited from earlier work
[4] = Jack bean urease, mean ± standard error of the mean, at least three experiments, read-out: IC50 against urease

T1 sequence (P07374 whole entry, looked up): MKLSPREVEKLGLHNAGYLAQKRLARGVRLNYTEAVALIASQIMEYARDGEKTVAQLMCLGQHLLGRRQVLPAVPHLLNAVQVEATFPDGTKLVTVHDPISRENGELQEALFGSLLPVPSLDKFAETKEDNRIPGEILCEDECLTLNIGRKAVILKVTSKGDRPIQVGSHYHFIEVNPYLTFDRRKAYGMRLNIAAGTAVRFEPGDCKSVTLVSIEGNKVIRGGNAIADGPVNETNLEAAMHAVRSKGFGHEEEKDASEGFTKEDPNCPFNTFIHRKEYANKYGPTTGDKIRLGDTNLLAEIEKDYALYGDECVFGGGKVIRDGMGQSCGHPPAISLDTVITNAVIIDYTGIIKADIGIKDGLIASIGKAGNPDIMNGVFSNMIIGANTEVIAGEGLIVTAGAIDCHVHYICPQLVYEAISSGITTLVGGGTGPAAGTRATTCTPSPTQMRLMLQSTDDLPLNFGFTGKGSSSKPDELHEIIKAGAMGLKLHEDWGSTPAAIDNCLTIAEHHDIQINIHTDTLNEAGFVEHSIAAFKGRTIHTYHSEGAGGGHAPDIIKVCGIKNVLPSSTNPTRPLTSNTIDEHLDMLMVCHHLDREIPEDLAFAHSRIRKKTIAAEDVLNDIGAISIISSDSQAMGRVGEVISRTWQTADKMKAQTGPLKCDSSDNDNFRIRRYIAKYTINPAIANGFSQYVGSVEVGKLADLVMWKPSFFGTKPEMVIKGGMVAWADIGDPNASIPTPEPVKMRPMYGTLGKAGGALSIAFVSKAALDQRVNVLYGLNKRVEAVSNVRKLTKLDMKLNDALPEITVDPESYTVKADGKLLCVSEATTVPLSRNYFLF

Row | Structure (SMILES) | IC50 (Jack bean (JB) urease [1]; [4]) [µM] | other results
1 | CN1C(=O)C(=CN/N=C/c2ccccc2)C(=O)N(C)C1=O [Compound 7a, (E)-5-((2-benzylidenehydrazinyl)methylene)-1,3-dimethylpyrimidine-2,4,6(1H,3H,5H)-trione] | 4.43 ± 0.21 | 
2 | CN1C(=O)C(=CN/N=C/c2ccccc2O)C(=O)N(C)C1=O [Compound 7b, (E)-5-((2-(2-hydroxybenzylidene)hydrazinyl)methylene)-1,3-dimethylpyrimidine-2,4,6(1H,3H,5H)-trione] | 3.09 ± 0.13 | 
3 | CN1C(=O)C(=CN/N=C/c2ccc(O)cc2O)C(=O)N(C)C1=O [Compound 7c, (E)-5-((2-(2,4-dihydroxybenzylidene)hydrazinyl)methylene)-1,3-dimethylpyrimidine-2,4,6(1H,3H,5H)-trione] | 1.2 ± 0.05 | 
4 | COc1cc(/C=N/NC=C2C(=O)N(C)C(=O)N(C)C2=O)cc(OC)c1OC [Compound 7d, (E)-1,3-dimethyl-5-((2-(3,4,5-trimethoxybenzylidene)hydrazinyl)methylene)pyrimidine-2,4,6(1H,3H,5H)-trione] | 2.53 ± 0.11 | 
5 | CN1C(=O)C(=CN/N=C/c2cccc(Oc3ccccc3)c2)C(=O)N(C)C1=O [Compound 7e, (E)-1,3-dimethyl-5-((2-(3-phenoxybenzylidene)hydrazinyl)methylene)pyrimidine-2,4,6(1H,3H,5H)-trione] | 2.85 ± 0.23 | 
6 | CN1C(=O)C(=CN/N=C/c2ccc(Cl)cc2)C(=O)N(C)C1=O [Compound 7f, (E)-5-((2-(4-chlorobenzylidene)hydrazinyl)methylene)-1,3-dimethylpyrimidine-2,4,6(1H,3H,5H)-trione] | 3.56 ± 0.16 | 
7 | CN1C(=O)C(=CN/N=C/c2cccc(Br)c2)C(=O)N(C)C1=O [Compound 7g, (E)-5-((2-(3-bromobenzylidene)hydrazinyl)methylene)-1,3-dimethylpyrimidine-2,4,6(1H,3H,5H)-trione] | 3.62 ± 0.19 | 
8 | CN1C(=O)C(=CN/N=C/c2ccccc2[N+](=O)[O-])C(=O)N(C)C1=O [Compound 7h, (E)-1,3-dimethyl-5-((2-(2-nitrobenzylidene)hydrazinyl)methylene)pyrimidine-2,4,6(1H,3H,5H)-trione] |  | Ki (Jack bean (JB) urease [2]): 0.82 µM; inhibition mode (Jack bean (JB) urease [2]; Lineweaver–Burk plot): mixed-type inhibitor; also recorded: mix-mode inhibitor; melting point: 178 to 180 °C; IC50 (Jack bean (JB) urease [1]): 0.61 ± 0.06 µM; activity fold superior to parent phenyl derivative 7a (Jack bean (JB) urease [1]; ratio of urease IC50 values): 7.2 fold; times more potent than thiourea (Jack bean (JB) urease [1]; ratio of urease IC50 values): 37.7 times
9 | CN1C(=O)C(=CN/N=C/c2ccc([N+](=O)[O-])cc2)C(=O)N(C)C1=O [Compound 7i, (E)-1,3-dimethyl-5-((2-(4-nitrobenzylidene)hydrazinyl)methylene)pyrimidine-2,4,6(1H,3H,5H)-trione] | 1.31 ± 0.09 | decrease of inhibitory activity relative to 2-nitro derivative 7h (Jack bean (JB) urease [1]; urease IC50 compared with 7h): about two
10 | CN1C(=O)C(=CN/N=C/c2cccc(Cl)c2Cl)C(=O)N(C)C1=O [Compound 7j, (E)-5-((2-(2,3-dichlorobenzylidene)hydrazinyl)methylene)-1,3-dimethylpyrimidine-2,4,6(1H,3H,5H)-trione] | 4.52 ± 0.31 | 
11 | CN1C(=O)C(=CN/N=C/c2cc([N+](=O)[O-])ccc2Cl)C(=O)N(C)C1=O [Compound 7k, (E)-5-((2-(2-chloro-5-nitrobenzylidene)hydrazinyl)methylene)-1,3-dimethylpyrimidine 2,4,6(1H,3H,5H)-trione] | 3.94 ± 0.25 | 
12 | CN1C(=O)C(=CN/N=C/c2cc(Cl)ccc2[N+](=O)[O-])C(=O)N(C)C1=O [Compound 7l, (E)-5-((2-(5-chloro-2-nitrobenzylidene)hydrazinyl)methylene)-1,3-dimethylpyrimidine-2,4,6(1H,3H,5H)-trione] | 1.34 ± 0.12 | 
13 | CN1C(=O)C(=CN/N=C/c2cccs2)C(=O)N(C)C1=O [Compound 7m, (E)-1,3-dimethyl-5-((2-(thiophen-2-ylmethylene)hydrazinyl)methylene)pyrimidine2,4,6(1H,3H,5H)-trione] | 0.86 ± 0.08 | 
14 | CN1C(=O)C(=CN/N=C/c2ccc(Cl)s2)C(=O)N(C)C1=O [Compound 7n, (E)-5-((2-((5-chlorothiophen-2-yl)methylene)hydrazinyl)methylene)-1,3-dimethylpyrimidine-2,4,6(1H,3H,5H)-trione] | 4.56 ± 0.18 | 
15 | CN1C(=O)C(=CN/N=C/c2cccc3ccccc23)C(=O)N(C)C1=O [Compound 7o, (E)-1,3-dimethyl-5-((2-(naphthalen-1-ylmethylene)hydrazinyl)methylene)pyrimidine-2,4,6(1H,3H,5H)-trione] |  | IC50 (Jack bean (JB) urease [1]): 1.94 ± 0.22 µM
16 | NC(=O)NO [Hydroxyurea, reference compound] | 100 ± 0.15 | experimental solubility [3]: 100 mg/mL
17 | NC(N)=S [Thiourea, reference compound] | 23 ± 1.7 | 
